# From US20220009976A1, “Peptide Possessing Mesenchymal-Stem-Cell Mobilizing Activity” (StemRIM Inc., priority 2018, published 2022)
# Assays:
# mesenchymal stem cells [1] = test: Solid-phase culture of peripheral blood after administration of HMGB1 peptide 1-44 (earlier experiments of the inventors); assay type: in vivo; settings: vs peripheral blood after administration of physiological saline
# Excerpt: In addition, the colonies obtained as a result of culturing, on a solid phase, peripheral blood after administration of a peptide consisting of amino acid residues 1-44 of the human HMGB1 protein (hereinafter, HMGB1 peptide 1-44), which has an activity of mobilizing mesenchymal stem cells into peripheral blood, have been confirmed to have adherability to solid phase and self-renewal ability, and to be PDGFRα positive. They have also been confirmed to have a gene expression profile characteristic to mesenchymal stem cells, based on the results of clustering the transcriptome analysis data and performing gene ontology analysis.
# Furthermore, it has been confirmed that the number of colonies obtained by solid-phase culture is larger in the peripheral blood after administration of HMGB1 peptide 1-44 than in the peripheral blood after administration of physiological saline.
# Therefore, the colonies obtained as a result of culturing peripheral blood on a solid phase are mesenchymal stem cells, and it is considered that an increase in the number of colonies detected in a solid phase culture of peripheral blood indicates an increase in the number of mesenchymal stem cells in the peripheral blood.
# mesenchymal stem cells [2] = test: Colony assay of peripheral blood collected after peptide administration (mobilization of mesenchymal stem cells into peripheral blood); assay type: in vivo, C57BL/6J mice; settings: 4 mg/kg tail vein; blood collected 14 hours after administration; 10 days culture; colonies of 50 or more cells; vs physiological saline
# Experimental: C57BL/6J mice (8 weeks old, male, body weight 25 g) were prepared and divided into a group administered with the artificial sequence peptide […] and a control group. The peptide was administered by injecting into the tail vein, a solution of peptide 1r10 adjusted to a concentration of […] using physiological saline as a solvent in an amount of 100 μL/animal (4 mg/kg dose of peptide). For the control group, physiological saline was injected into the tail vein in an amount of 100 μL/animal. […]
# The supernatant (sample containing peripheral blood-derived cells) obtained by the above procedure was seeded on collagen I-coated 6-well plates (Corning, Cat No. 356400), and cultured for 10 days under the conditions of 37° C., 5% CO2 and 5% O2, using a medium containing Expansion Medium prepared using the MesenCult Expansion Kit (STEMCELL Technologies, Cat No. ST-05513) according to the manual of the kit, 1% L-glutamine (Nacalai Tesque Inc.), 10 μM ROCK inhibitor (Y27632, Tocris Bioscience) and 1% penicillin/streptomycin (Nacalai Tesque Inc.) (all numerical values are final concentrations). […] On the 10th day of culture, cells on the plates were stained with a Differential Quik Stain Kit (Sysmex Corporation, Cat No. 16920), and the number of colonies containing 50 or more cells was counted. […]
# [3] = system: inflammatory bowel disease (IBD) model mice; test: Efficacy in DSS-induced inflammatory bowel disease (IBD) model mice; assay type: in vivo, BALB/c mice
# Experimental: Dextran sodium sulfate (DSS) (molecular weight 36,000 to 50,000, manufactured by MP Biomedicals, Product No. 160110) was dissolved in purified water to prepare a 2.5% (w/v) DSS aqueous solution. In addition, the peptide 1r10 (TFA salt) described in Example 1 was used as the test substance.
# BALB/c mice (9 weeks old, male) were allowed to drink the 2.5% DSS aqueous solution freely for 7 days to induce colitis. After that, the drinking was changed from DSS to tap water, and the large intestine was collected 3 days later (10 days after the start of drinking the DSS aqueous solution).
# The IBD model mice prepared as described above were divided into the peptide 1r10 administration group (n=8) and the control group (n=8). Peptide administration was carried out by injecting into the tail vein, the peptide 1r10 solution adjusted to a concentration of 0.5 mg/mL using physiological saline as a solvent at an amount of 10 mL/kg on Days 1, 4, 7, 8 and 9 after the start of drinking the DSS aqueous solution (peptide dose of 5 mg/kg). The control group was injected with physiological saline solution at a dose of 10 mL/kg into the tail vein on Days 1, 4, 7, 8 and 9 after the start of drinking the DSS aqueous solution.
# For 10 days from the start of drinking the DSS aqueous solution, the mice were weighed and observed for the symptoms (stool condition and bleeding) every day except Saturdays, Sundays, and holidays, and the degree of symptoms was evaluated by calculating the DAI (disease activity index) score. The DAI score was calculated by scoring the weight loss rate, stool condition, and stool bleeding as shown in the table below, and summing the scores of these three items. The scoring criteria were partly based on the method of Li et al. (PLoS One. 2015 Dec. 7; 10 (12): e0144101).
# In addition, the length of the large intestine (from the colon to the rectum) collected 10 days after the start of drinking DSS was measured using a digital caliper.
# [4] = system: atopic dermatitis model mice; test: Efficacy in MC903-induced atopic dermatitis (AD) model mice; assay type: in vivo, C57BL/6 mice
# Excerpt: MC903 (generic name: Calcipotriol) was used to induce atopic dermatitis (hereinafter, also referred to as “AD”) in mice. In addition, the peptide 1r10 (TFA salt) described in Example 1 was used as the test substance.
# C57BL/6 mice (C57BL/6JJcl, 7-8 weeks old, male, microbial grade SPF) were obtained from Japan Claire Co., Ltd., acclimated in the animal breeding room for 5 days or more, and then subjected to the following experiments. An ethanol-adjusted MC903 solution was applied to the skin of the auricle of the mice at a dose of 2.25 nmol MC903/ear/once/day five times a week for 2 weeks (ten times in total) to induce atopic dermatitis (AD). This MC903-induced AD model is a model in which AD-like pathology can be reproduced in a short period of time (1-2 weeks) by artificially inducing the secretion of TSLP from epithelial cells, which is actually seen in AD patients, thereby eliciting a series of type 2 immune response cascades (Li M et al., Proc Natl Acad Sci USA. 2006; 103:11736-41).
# They were then divided into the control group and the peptide administration group (n=7 in each group), while the groups were equalized based on the auricle thickness in consideration of the difference in the severity of inflammation between individuals. For peptide administration, the solution of peptide 1r10 adjusted to 0.3 mg/mL with physiological saline was injected into the tail vein at a volume of 5 mL/kg (peptide dose of 1.5 mg/kg) twice in total, once on the grouping day (Day 15) and once during the following 4 days (Day 16 to Day 19). For the control group a solution of bovine serum albumin (BSA) adjusted to 0.3 mg/mL with physiological saline was injected into the tail vein at a volume of 5 mL/kg (BSA dose of 1.5 mg/kg) twice in total, once on the grouping day (Day 15) and once during the following 4 days (Day 16 to Day 19).
# During the peptide administration period (Day 15 to Day 19), ear swellings were measured daily to determine edema. Scaling, which is the main symptom of AD, was determined by photography (three times a week) using a digital camera (E-M1 II; Olympus) from a fixed base at a height of 13-14 cm from the auricle.
# On the 4th day (Day 19) after the start of peptide administration, mice were placed under the influence of isoflurane anesthesia and euthanized with cervical spine dislocation. The skin at auricular inflammation site and its surroundings was quickly excised and collected while on ice to prevent protein denaturation of the sample. After removing excess hair and skin with tweezers, the collected auricular skin was immersed in 10% formalin and fixed at 4° C. overnight while shaking on ice using a shaker. After fixation, the skin was thoroughly washed with phosphate buffered saline (PBS) and trimmed, and then a paraffin block was made using an automatic embedding device (Excelsior ES; Thermo Scientific) with attention to the tissue polarity in the dorsoventral axis/left-right axis specific to the skin). Then, it was sliced (5 μm thick) with a rotary microtome (HM 325; Thermo Scientific), fixed on a slide glass, and subjected to various staining. As pathological analysis, skin thickness and infiltration of immune cells were evaluated by histochemical staining and fluorescent immunostaining, respectively.
# To quantitatively evaluate the healing condition of the site of inflammation, hematoxylin-eosin (HE) staining of the paraffin thin sections (5 μm thick) of skin tissue generated as described above was performed to measure the dermal thickness. Specifically, three sections were prepared for each individual, and each section was photographed with a microscope (Keyence BZ-X710) at one site each of the center of inflammation, head side, and tail side (that is, a total of 9 sites were photographed per individual). […]
# [5] = system: cerebral infarction model rat; test: Efficacy in cerebral infarction model rat (right MCA occlusion); assay type: in vivo, Crl:CD (SD) rats; settings: 2 mg/kg tail vein at 105 minutes and 24 hours after right MCA occlusion; 48 hours after occlusion; p<0.01 vs control 34.1±1.1%
# Excerpt: Crl:CD (SD) rats (7 weeks old, male) were obtained from Charles River Laboratories, Japan, and after 6 days of acclimation, they were divided into the control group (n=8) and the peptide-administered group (n=8). On the following day of grouping, the rats were fixed in the supine position under 2% isoflurane inhalation anesthesia (anesthesia background: laughing gas:oxygen=7:3). To regulate body temperature during surgery, a thermometer probe connected to a digital thermometer was inserted into the rectum, and changes in the rectal temperature before and after surgery were monitored. […]
# Forty-eight hours after the right MCA occlusion, the animals were decapitated under anesthesia with sodium pentobarbital (50 mg/kg, intraperitoneal administration), and the entire brain was excised to prepare brain sections with a thickness of 2 mm. […] The resulting photographs were subjected to image analysis to obtain actual measurements of the cerebral infarction area and cross-sectional area of the brain, and the cerebral infarct volume and the total brain volume from 4 mm anterior to bregma to 6 mm posterior to bregma were calculated using the calculation formula below. In addition, the cerebral infarction volume ratio was calculated from the cerebral infarction volume and the total volume of the brain (cerebral infarction volume ratio (%)=cerebral infarction volume/total brain volume×100).
# [6] = 5 mg/kg tail vein, 8 to 10 days after the start of drinking DSS, vs control group
Substance,number of colonies obtained by solid-phase culture of peripheral blood (mesenchymal stem cells [1]),number of colonies obtained on the plate by culturing the peripheral blood-derived cells (mesenchymal stem cells [2]),"body weight 10 days after the start of drinking the DSS aqueous solution ([3]; 5 mg/kg tail vein on Days 1, 4, 7, 8 and 9, Day 10)","changes in mouse body weight (degree of decrease) ([3]; 5 mg/kg tail vein on Days 1, 4, 7, 8 and 9 after start of drinking DSS, vs control group (saline))","DAI (disease activity index) score [3, 6]","stool score (sum of stool condition score and bleeding score) [3, 6]","colon length ([3]; 5 mg/kg tail vein, ten days after the start of drinking DSS, vs control group)","dermis thickness ([4]; 1.5 mg/kg tail vein twice, 4th day (Day 19) after start of administration, HE staining, vs control group)","scaling in the auricle ([4]; 1.5 mg/kg tail vein twice, 4 days after start of peptide administration, vs control group (BSA))","auricular thickness (edema) ([4]; 1.5 mg/kg tail vein twice, Day 15 to Day 19, vs control group (BSA))","number of CD45-positive cells in auricular skin sections ([4]; 1.5 mg/kg tail vein twice, Day 19, per high-power field (400×), vs control group)","changes in mouse body weight during the period of the study ([4]; Day 15 to Day 19, between the groups, p>0.05, repeated one-way ANOVA)","dermis thickness ([4]; dose of 0.5 mg/kg, vs control group, data not shown)",cerebral infarction volume ratio (mean±standard error) [5]
"HMGB1 peptide 1-44: peptide consisting of amino acid residues 1-44 of the human HMGB1 protein, which has an activity of mobilizing mesenchymal stem cells into peripheral blood (MGKGDPKKPRGKMSSYAFFVQTCREEHKKKHPDASVNFSEFSKK; UniProt P09429 1-44, looked up, fragment)",larger,–,–,–,–,–,–,–,–,–,–,–,–,–
"peptide 1r10: artificial sequence peptide consisting of the amino acid sequence of SEQ ID NO: 1, chemically synthesized (IMWLCQYFFQCHKCAVKKKTWKEKKDRRHP)",–,larger,tendency to recover body weight,slower,lower,lower,longer,statistically significant decrease,reduction of scaling,statistically significant reduction,statistically significant decrease,not significantly different,statistically significant decrease,27.2±1.2%
